Reference: US12172995B2, “Substituted indole and indazole compounds” (BRISTOL-MYERS SQUIBB COMPANY, priority 2018, dated 2024)

Tests used:
Assay type in all cases: cell-based
[1] = target: T1, human TLR9 (Homo sapiens, UniProt Q9NR96); test: TLR9 inhibition reporter assay (HEK-Blue SEAP); conditions: HEK-Blue cells overexpressing human TLR9, stimulated with ODN2006 5 nM, 22 hour incubation
T1 construct: host or cells: HEK-Blue cells
T1 sequence (Q9NR96 26-1032): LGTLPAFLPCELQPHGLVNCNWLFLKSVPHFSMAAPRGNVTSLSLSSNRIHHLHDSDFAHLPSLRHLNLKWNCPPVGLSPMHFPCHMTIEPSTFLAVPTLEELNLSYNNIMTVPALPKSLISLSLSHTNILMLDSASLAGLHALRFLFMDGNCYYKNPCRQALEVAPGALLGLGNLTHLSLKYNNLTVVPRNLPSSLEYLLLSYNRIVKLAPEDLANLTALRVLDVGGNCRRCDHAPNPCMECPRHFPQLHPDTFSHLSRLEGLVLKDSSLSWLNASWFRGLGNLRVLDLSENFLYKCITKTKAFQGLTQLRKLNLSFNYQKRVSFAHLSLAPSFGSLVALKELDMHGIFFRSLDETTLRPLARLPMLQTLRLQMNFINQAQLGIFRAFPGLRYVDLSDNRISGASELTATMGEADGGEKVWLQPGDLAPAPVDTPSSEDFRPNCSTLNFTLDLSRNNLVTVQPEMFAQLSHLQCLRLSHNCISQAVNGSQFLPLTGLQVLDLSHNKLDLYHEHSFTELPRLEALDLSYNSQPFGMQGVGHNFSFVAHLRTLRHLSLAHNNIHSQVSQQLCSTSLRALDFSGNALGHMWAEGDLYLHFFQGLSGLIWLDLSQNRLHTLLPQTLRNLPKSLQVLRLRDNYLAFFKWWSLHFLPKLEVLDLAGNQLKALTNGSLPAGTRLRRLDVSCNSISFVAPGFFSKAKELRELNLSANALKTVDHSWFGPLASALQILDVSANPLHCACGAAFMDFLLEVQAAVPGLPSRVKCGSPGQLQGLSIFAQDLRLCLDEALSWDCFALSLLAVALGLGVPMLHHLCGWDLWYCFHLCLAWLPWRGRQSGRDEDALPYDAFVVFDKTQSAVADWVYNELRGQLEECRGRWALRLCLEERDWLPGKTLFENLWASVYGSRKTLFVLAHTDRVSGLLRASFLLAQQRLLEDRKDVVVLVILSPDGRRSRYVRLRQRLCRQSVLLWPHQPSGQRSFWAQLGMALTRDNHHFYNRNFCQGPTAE
Method in brief: (§1)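 HEK-Blue cells overexpressing human TLR7, TLR8 or TLR9 with an NF-κB/AP-1-driven SEAP reporter were pre-treated 30 min at room temperature with compound (0.05 nM to 50 μM), then stimulated with gardiquimod 7.5 μM (TLR7), R848 15.9 μM (TLR8) or ODN2006 5 nM (TLR9). SEAP measured after 22 h at 37° C; inhibition normalized between agonist-plus-DMSO and reference-inhibitor wells.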

[2] = target: T2, human TLR7 (Homo sapiens, UniProt Q9NYK1); test: TLR7 inhibition reporter assay (HEK-Blue SEAP); conditions: HEK-Blue cells overexpressing human TLR7, stimulated with gardiquimod 7.5 μM, 22 hour incubation
T2 construct: host or cells: HEK-Blue cells
T2 sequence (Q9NYK1 27-1049): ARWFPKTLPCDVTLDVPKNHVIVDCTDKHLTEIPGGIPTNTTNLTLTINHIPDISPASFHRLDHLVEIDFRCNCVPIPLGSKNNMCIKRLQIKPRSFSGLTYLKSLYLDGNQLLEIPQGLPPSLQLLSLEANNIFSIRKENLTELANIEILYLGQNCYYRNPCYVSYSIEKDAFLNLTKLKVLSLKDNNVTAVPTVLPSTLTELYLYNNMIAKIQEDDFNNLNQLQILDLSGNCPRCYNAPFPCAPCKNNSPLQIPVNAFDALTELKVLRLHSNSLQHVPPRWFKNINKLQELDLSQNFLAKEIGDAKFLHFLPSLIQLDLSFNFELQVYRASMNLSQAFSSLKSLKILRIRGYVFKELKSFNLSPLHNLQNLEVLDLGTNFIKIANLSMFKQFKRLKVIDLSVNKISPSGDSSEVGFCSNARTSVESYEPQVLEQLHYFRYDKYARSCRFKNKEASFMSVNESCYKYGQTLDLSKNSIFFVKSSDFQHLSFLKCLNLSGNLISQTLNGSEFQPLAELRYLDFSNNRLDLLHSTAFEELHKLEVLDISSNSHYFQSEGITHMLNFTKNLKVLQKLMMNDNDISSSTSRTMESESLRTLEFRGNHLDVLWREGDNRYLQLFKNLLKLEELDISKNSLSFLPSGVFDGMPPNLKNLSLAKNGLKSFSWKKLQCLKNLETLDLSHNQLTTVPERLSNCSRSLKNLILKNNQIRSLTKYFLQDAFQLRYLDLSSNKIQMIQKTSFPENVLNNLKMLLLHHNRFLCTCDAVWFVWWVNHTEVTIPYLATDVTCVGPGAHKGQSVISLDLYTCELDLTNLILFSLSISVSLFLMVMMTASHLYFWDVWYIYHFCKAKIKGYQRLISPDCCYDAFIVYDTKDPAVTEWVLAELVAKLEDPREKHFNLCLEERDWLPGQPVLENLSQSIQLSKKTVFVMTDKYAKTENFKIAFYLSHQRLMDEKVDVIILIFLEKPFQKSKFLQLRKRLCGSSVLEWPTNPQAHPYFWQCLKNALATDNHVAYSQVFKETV
Method in brief: as §1

[3] = target: T3, human TLR8 (Homo sapiens, UniProt Q9NR97); test: TLR8 inhibition reporter assay (HEK-Blue SEAP); conditions: HEK-Blue cells overexpressing human TLR8, stimulated with R848 15.9 μM, 22 hour incubation
T3 construct: host or cells: HEK-Blue cells
T3 sequence (Q9NR97 27-1041): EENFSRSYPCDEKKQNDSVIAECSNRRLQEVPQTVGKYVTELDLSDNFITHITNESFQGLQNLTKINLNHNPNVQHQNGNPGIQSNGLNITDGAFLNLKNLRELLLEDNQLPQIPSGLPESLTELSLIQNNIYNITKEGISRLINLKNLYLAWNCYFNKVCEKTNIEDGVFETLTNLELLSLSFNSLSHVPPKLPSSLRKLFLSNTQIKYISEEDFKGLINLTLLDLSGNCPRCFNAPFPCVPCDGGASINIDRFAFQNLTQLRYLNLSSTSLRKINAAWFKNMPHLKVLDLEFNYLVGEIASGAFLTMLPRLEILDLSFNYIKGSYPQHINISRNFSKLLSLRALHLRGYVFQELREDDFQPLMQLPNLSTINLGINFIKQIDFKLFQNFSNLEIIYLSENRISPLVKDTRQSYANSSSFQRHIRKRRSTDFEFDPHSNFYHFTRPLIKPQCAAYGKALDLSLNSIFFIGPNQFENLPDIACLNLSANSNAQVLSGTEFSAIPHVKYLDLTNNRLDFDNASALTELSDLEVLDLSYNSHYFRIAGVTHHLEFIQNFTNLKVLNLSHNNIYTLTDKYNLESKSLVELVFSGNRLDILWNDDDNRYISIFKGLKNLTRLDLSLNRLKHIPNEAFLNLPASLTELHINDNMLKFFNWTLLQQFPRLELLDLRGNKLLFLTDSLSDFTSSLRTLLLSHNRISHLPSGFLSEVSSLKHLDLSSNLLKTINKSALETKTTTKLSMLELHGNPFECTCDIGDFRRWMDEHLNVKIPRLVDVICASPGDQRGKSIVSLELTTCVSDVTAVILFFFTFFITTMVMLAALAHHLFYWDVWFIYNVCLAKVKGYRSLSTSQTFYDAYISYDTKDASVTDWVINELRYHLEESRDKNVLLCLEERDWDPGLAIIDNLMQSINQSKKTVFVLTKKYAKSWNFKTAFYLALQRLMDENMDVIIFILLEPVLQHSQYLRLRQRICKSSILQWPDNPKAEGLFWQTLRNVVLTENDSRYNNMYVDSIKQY
Method in brief: as §1

IC50 [1] | IC50 [2] | IC50 [3] | Compound
3.73 µM | 13.2 nM | 1.6 nM | Cc1cc(-c2cc(C)c3ncnn3c2)cc2[nH]nc(OC3CCN(Cc4cn(C)nn4)CC3)c12 [Example 193, 8-methyl-6-(4-methyl-3-((1-((1-methyl-1H-1,2,3-triazol-4-yl)methyl)piperidin-4-yl)oxy)-1H-indazol-6-yl)-[1,2,4]triazolo[1,5-a]pyridine]
1.66 µM | 7.2 nM | 1.9 nM | Cc1cc(-c2cc(C)c3ncnn3c2)cc2[nH]nc(OC3CCN(CC#N)CC3)c12 [Example 194, 2-(4-((4-methyl-6-(8-methyl-[1,2,4]triazolo[1,5-a]pyridin-6-yl)-1H-indazol-3-yl)oxy)piperidin-1-yl)acetonitrile]
6.18 µM | 3.7 nM | 0.8 nM | CCc1cc(-c2cc(C)c3ncnn3c2)cc2[nH]nc(OC3CCNCC3)c12 [Example 195, 6-(4-ethyl-3-(piperidin-4-yloxy)-1H-indazol-6-yl)-8-methyl-[1,2,4]triazolo[1,5-a]pyridine]
5.76 µM | 4.9 nM | 1 nM | CCc1cc(-c2cc(C)c3ncnn3c2)cc2[nH]nc(OC3CCN(CC(=O)N(C)C)CC3)c12 [Example 196, 2-(4-((4-ethyl-6-(8-methyl-[1,2,4]triazolo[1,5-a]pyridin-6-yl)-1H-indazol-3-yl)oxy)piperidin-1-yl)-N,N-dimethylacetamide]
28.2 µM | 319 nM | 2360 nM | COc1cc(-c2ccc3c(C(=O)NC4CCNCC4)c[nH]c3c2)cn2ncnc12 [Example 197, 6-(8-methoxy-[1,2,4]triazolo[1,5-a]pyridin-6-yl)-N-(piperidin-4-yl)-1H-indole-3-carboxamide]
9.21 µM | 493 nM | 590 nM | Cc1cc(-c2ccc3c(C(=O)NC4CCNCC4)c[nH]c3c2)cn2ncnc12 [Example 198, 6-(8-methyl-[1,2,4]triazolo[1,5-a]pyridin-6-yl)-N-(piperidin-4-yl)-1H-indole-3-carboxamide]
4.37 µM | 226 nM | 218 nM | Cc1cc(-c2ccc3c(C(=O)NC4CCNCC4)n[nH]c3c2)cn2ncnc12 [Example 199, 6-(8-methyl-[1,2,4]triazolo[1,5-a]pyridin-6-yl)-N-(piperidin-4-yl)-1H-indazole-3-carboxamide]
1.89 µM | 289 nM | 149 nM | Cc1cc(-c2ccc3c(NC4CCNCC4)n[nH]c3c2)cn2ncnc12 [Example 200, 6-(8-methyl-[1,2,4]triazolo[1,5-a]pyridin-6-yl)-N-(piperidin-4-yl)-1H-indazol-3-amine]
≥ 50 µM | 857 nM | 55.7 nM | Cc1cc2c(N)n[nH]c2cc1-c1cc(C)c2ncnn2c1 [Example 201, 5-methyl-6-(8-methyl-[1,2,4]triazolo[1,5-a]pyridin-6-yl)-1H-indazol-3-amine]
9.92 µM | 266 nM | 15.3 nM | Cc1cc2c(NC(=O)C3CCNCC3)n[nH]c2cc1-c1cc(C)c2ncnn2c1 [Example 202, N-(5-methyl-6-(8-methyl-[1,2,4]triazolo[1,5-a]pyridin-6-yl)-1H-indazol-3-yl)piperidine-4-carboxamide]
2.53 µM | 85.9 nM | 1.9 nM | Cc1cc2c(NCCN3CCCC3)n[nH]c2cc1-c1cc(C)c2ncnn2c1 [Example 204, 5-methyl-6-(8-methyl-[1,2,4]triazolo[1,5-a]pyridin-6-yl)-N-(2-(pyrrolidin-1-yl)ethyl)-1H-indazol-3-amine]
6.1 µM | 14.1 nM | 0.7 nM | Cc1cc2c(N3CCNCC3)n[nH]c2cc1-c1cc(C)c2ncnn2c1 [Example 205, 8-methyl-6-(5-methyl-3-(piperazin-1-yl)-1H-indazol-6-yl)-[1,2,4]triazolo[1,5-a]pyridine]
21.9 µM | 3.2 nM | 16.4 nM | Cc1cc(-c2cc3[nH]nc(N4CCNCC4)c3cc2C(C)C)cn2ncnc12 [Example 206, 6-(5-isopropyl-3-(piperazin-1-yl)-1H-indazol-6-yl)-8-methyl-[1,2,4]triazolo[1,5-a]pyridine]
33.3 µM | 6.5 nM | 0.15 nM | Cc1cc(-c2cc3[nH]nc(N4CCN(C5CCOCC5)CC4)c3cc2C(C)C)cn2ncnc12 [Example 207, 6-(5-isopropyl-3-(4-(tetrahydro-2H-pyran-4-yl)piperazin-1-yl)-1H-indazol-6-yl)-8-methyl-[1,2,4]triazolo[1,5-a]pyridine]
11.9 µM | 5.8 nM | 0.12 nM | Cc1cc(-c2cc3[nH]nc(N4CCN(C(C)C)CC4)c3cc2C(C)C)cn2ncnc12 [Example 208, 6-(5-isopropyl-3-(4-isopropylpiperazin-1-yl)-1H-indazol-6-yl)-8-methyl-[1,2,4]triazolo[1,5-a]pyridine]
